Data taken from patent US20080269121A1, “Methods and Compositions Involving A1c Subunit of L-Type Calcium Channels in Smooth Muscle Cells” (The Board of Regents of the University of Texas System, priority 2005, published 2008).
Entries after “also recorded” stand apart in the source; their conditions may differ.

Experiments:
[1] = system: α1C subunit of L-type Ca^2+ channels; test: Q-PCR of α1C mRNA expression in HCCSMC; assay type: cell-based, human
Description: Primary cultures of HCCSMC: Human tissue was obtained from the descending and sigmoid colons with approval of the University of Texas Medical Branch Institutional Review Board from disease free margins of resected segments from patients undergoing surgery for colon cancer. The circular muscle layer was separated from the taenia coli and lamina propria with a tissue slicer. The circular muscle layer was collected in ice-cold HEPES buffer (in mM: 120 NaCl, 2.6 KH2S04, 4 KCl, 2 CaCl2, 0.6 MgCl2, 25 HEPES, 14 glucose and 2.1% essential amino acid mixture, pH 7.4). Two successive digestions with papain and collagenase, as described previously by Shi and Sarna, were used to disperse smooth muscle cells. The cells were cultured in RPMI 1640 (Gibco/Invitrogen, Carlsbad, Calif.) supplemented with 10% fetal bovine serum in the presence of 100 units/mL of penicillin G, 100 μg/mL of streptomycin sulfate and 0.25 μg/mL of amphoteracin B. The culture medium was changed every three days. Cells in passages 3 to 5 were used in all experiments. All cells were cultured in serum-free medium for at least 15 h prior to experiments to eliminate the possible effects of growth factors. […] The cultures of colonic smooth muscle cells retain their contractile phenotype. Each experiment used cells or muscle strips from at least three different subjects.
Total RNA was extracted from cells using the Qiagen RNeasy kit (Qiagen, Valencia, Calif.) by following the manufacturer's protocol. The cDNAs were made using the Superscript First-Strand Synthesis System (Invitrogen, Carlsbad, Calif.).
Quantitive real-time-polymerase chain reaction (Q-PCR). Q-PCR assay is employed to determine gene expression using TaqMan technology on Applied Biosystems 7000 sequence detection system (UTMB Real-time PCR Core Facility). Applied Biosystems Assays-By-Design containing a 20× assay mix of primers and TaqMan MGB probes (FAMTM dye-labeled) are used for a target gene and the endogenous control, human 18s RNA. These assays were designed using primers that span exon-exon junctions so as not to detect genomic DNA. All primer and probe sequences were searched against the Celera data base to confirm specificity. The primer and probe sequences used were as follows: human Cav1.2 channel oα1C intermediate form (Cav1.2b) probe spanning exon 1b and exon 2, […] (SEQ ID NO:4): forward primer, […] (SEQ ID NO:5): reverse primer, […] (SEQ ID NO:6). Human Cav1.2 channel α1C long form (Cav1.2a) probe spanning exon 1a and exon 2: […] (SEQ ID NO:7): forward primer, […] (SEQ ID NO:8): reverse primer. […] (SEQ ID NO:6).

HCCSMC = test: Cytosolic free Ca^2+ measurement (fura-2 AM) in HCCSMC; assay type: cell-based, human; conditions: treatment for 24 h, by
Procedure: Cytosolic free Ca^2+ measurement: Cytosolic calcium level ([Ca^2+]i) was measured in a wide-field imaging system at the UTMB core Optical Imaging Laboratory using the Ca^2+-sensitive fluorescent dye fura 2-AM (Molecular Probes, Eugene, Oreg.). HCCSMC cultured on cover slips were incubated with 1 μM fura 2-AM for 45 min at 37° C. in a modified HEPES buffer (pH 7.4) containing (in mM): 10 HEPES, 125 NaCl, 5 KCl, 1 CaCl2, 0.5 MgSO4, 5 glucose. Cover slips with cells were washed with fresh medium and mounted on the stage of a Nikon TE200 inverted microscope (Nikon Instruments, Lewisville, Tex.) equipped with a CoolSNAP HQ cooled-CCD monochrome digital camera (Roper Scientific, Tucson Ariz.). Cells were examined under a super-fluor 20×0.75 NA objective during exposure to alternating 340 and 380 nm excitation light (DG4 illuminator system, Sutter Instrument, Novato, Calif.), and the intensity of light emission at 510 nm was measured. The light intensities and their ratio, F340/F380, which reflects changes in Ca^2+ concentration, were followed simultaneously in several single cells in the field. The acquisition process was controlled by the Metafluor image acquisition software (Universal Imaging Corp. Downingtown, Pa.).

CREB = CREB phosphorylation in HCCSMC; assay type: cell-based, human
Procedure: Western immunoblotting. Each lane is loaded with 10 μg protein and size-separated on a 10% SDS polyacrylamide gel. After blotting, the nitrocellulose membranes are blocked with 10% non-fat dried milk at 4° C. overnight. The blots are incubated with appropriate dilution of the antibody at 4° C. overnight and appropriate dilution of designated secondary antibody at room temperature for 1 h. β-actin is used as internal control.

CRE1 and CRE2 = test: Oligonucleotide agarose conjugate pull-down of CREB; assay type: cell-based, human; conditions: FIG. 10
ERK ½ = test: MAP kinase phosphorylation: ERK ½; assay type: cell-based
JNK/SAPK = test: MAP kinase phosphorylation: JNK/SAPK; assay type: cell-based
[2] = system: TNBS (trinitrobenzene sulfonic, acid)-induced colitis; conditions: systemic bolus injections, mouse; cited from earlier work

**Q.** For vasoactive intestinal polypeptide [VIP], which “induction of α1C mRNA expression” value ([1]; HCCSMC) is on record?
**A.** induced expression; also recorded: enhanced the mRNA of α1C

**Q.** What about the “duration of α1C mRNA transcription and translation after treatment” value ([1]; HCCSMC, FIG. 3) of the same substance?
**A.** at least 24 h

**Q.** And the “increase of α1C mRNA” value ([1]; at 6 h, adult human colonic circular smooth muscle cells)?
**A.** about 50%

**Q.** What about the “Ca^2+ influx” value (HCCSMC) of the same substance?
**A.** enhanced Ca^2+ influx

**Q.** What about the “duration of CREB phosphorylation” value (CREB) of the same substance?
**A.** lasted about one hour

**Q.** And the “phosphorylation of CREB” value (CREB; HCCSMC)?
**A.** phosphorylated upon exposure to VIP; also recorded: transient phosphorylation

**Q.** And the “CREB binding to CRE1 and CRE2” value (CRE1 and CRE2)?
**A.** more CREB binds at both CRE1 and CRE2

**Q.** What about the “phosphorylation of ERK ½” value (ERK ½) of the same substance?
**A.** time-dependently dephosphorylated

**Q.** And the “phosphorylation of JNK/SAPK” value (JNK/SAPK)?
**A.** time-dependently dephosphorylated

**Q.** And the “MPO (myeloperoxidase) activity” value [2]?
**A.** did not completely suppress

**Q.** What about the TNBS-induced diarrhea [2] of the same substance?
**A.** abrogated TNBS-induced diarrhea

**Q.** And the “macroscopic and microscopic inflammation” value [2]?
**A.** reduced macroscopic and microscopic inflammation
